These results are taken from ChEMBL document CHEMBL1132676, “Resolution of a CPzI precursor, synthesis and biological evaluation of (+) and (-)-N-Boc-CPzI: a further validation of the relationship between chemical solvolytic stability and cytotoxicity” (Bioorg Med Chem Lett, 1999).

A short description of data set [1]: The compound was evaluated for the chemical solvolytic stability at a pH 3. In kind it is physicochemical. The conditions noted are these: buffer.
Data set [2] has as its system L1210. The data set is described as follows: In vitro cytotoxicity against L1210 murine leukemia cell lines. It is filed as functional, cell-based. The conditions noted are these: Mus musculus.

In data set [1], `Cc1c[nH]c2c1[C@@]13C[C@@H]1CN(C(=O)OC(C)(C)C)C3=CC2=O` had a T1/2 of 37 h.

Take `Cc1n[nH]c2c1[C@@]13C[C@@H]1CN(C(=O)OC(C)(C)C)C3=CC2=O`: it took 206 nM to reach half-maximal inhibition in data set [2] (IC50).

On to `Cc1n[nH]c2c1[C@]13C[C@H]1CN(C(=O)OC(C)(C)C)C3=CC2=O`, for which it took 923 nM to reach half-maximal inhibition in data set [2] (IC50).

`CC(C)(C)OC(=O)N1C[C@H]2C[C@@]23C1=CC(=O)c1ccccc13`: in data set [2], it took 80 nM to reach half-maximal inhibition (IC50). The half-life in data set [1] is 133 h.

`Cc1n[nH]c2c1C13CC1CN(C(=O)OC(C)(C)C)C3=CC2=O` (centres undefined): the IC50 in data set [2] was 370 nM. This compound also gave a half-life in data set [1] of 110 h.

The compound `COC(=O)c1cc2c([nH]1)C(=O)C=C1N(C(=O)OC(C)(C)C)C[C@H]3C[C@]123` came in with an IC50 in data set [2] of 6 nM. Also, the half-life in data set [1] was 177 h.

What is called IC50 is the concentration that inhibits the measured activity by half. Higher therefore signals weaker potency in that assay. Broadly, the half-life is the time needed for the level to fall by half in the phase considered. Read a low half-life as fast loss.
